# Test results as given in patent US10874743B2, “IRAK degraders and uses thereof” (Kymera Therapeutics, Inc., priority 2017, dated 2020).
# Read-outs that look alike come from different tables or passages of the source.
# Test: Pharmacokinetics in Sprague Dawley rats (plasma and brain concentrations, PK parameters)
# Type: in vivo
# Details: for half-life: read-out: T1/2 (converted)
# Method: Pharmacokinetics for I-127, I-172 and I-210 were determined in Sprague Dawley rats or CD-1 mice by dosing intravenous (IV), subcutaneous (SC) or per oral (PO) using facility SOPs and sampling plasma at required time points. Species, formulation, route of administration and time points samples are listed below for each compound.
# Compounds were extracted from plasma, injected on reverse phase HPLC, eluted with a gradient from 5% to 95% acetonitrile in water and quantified by mass spectrometry with internal standard. Data are expressed in ng compound per mL of plasma.
# [1] = Sprague Dawley, rat, plasma, po, 10 mg/kg, Sprague Dawley rat, po 10 mg/kg, plasma, Rat 4, read-out: Concentration Rat 4
# [2] = Sprague Dawley, rat, plasma, po, 10 mg/kg, Sprague Dawley rat, po 10 mg/kg, plasma, Rat 5, read-out: Concentration Rat 5
# [3] = Sprague Dawley, rat, plasma, po, 10 mg/kg, Sprague Dawley rat, po 10 mg/kg, plasma, Rat 6, read-out: Concentration Rat 6
# [4] = Sprague Dawley, rat, plasma, po, 10 mg/kg, Sprague Dawley rat, po 10 mg/kg, plasma, mean of 3 rats, read-out: Concentration Mean
# [5] = Sprague-Dawley, rat, plasma, iv, 3 mg/kg, Sprague Dawley rat, iv 3 mg/kg, plasma, Rat 1, read-out: Concentration Rat 1
# [6] = Sprague-Dawley, rat, plasma, iv, 3 mg/kg, Sprague Dawley rat, iv 3 mg/kg, plasma, Rat 2, read-out: Concentration Rat 2
# [7] = Sprague-Dawley, rat, plasma, iv, 3 mg/kg, Sprague Dawley rat, iv 3 mg/kg, plasma, Rat 3, read-out: Concentration Rat 3
# [8] = Sprague-Dawley, rat, plasma, iv, 3 mg/kg, Sprague Dawley rat, iv 3 mg/kg, plasma, mean of 3 rats, read-out: Concentration Mean
compound,measurement,setting,value
"O=C1CCC(N2C(=O)c3cccc(NCCOCCOCCNCc4ccc(-n5cc(NC(=O)c6coc(-c7ccnc(NCC8CC8)c7)n6)c(C(F)F)n5)cc4)c3C2=O)C(=O)N1 (stereo not drawn) [I-210, 2-[2-(Cyclopropylmethylamino)-4-pyridyl]-N-[3-(difluoromethyl)-1-[4-[[2-[2-[2-[[2-(2,6-dioxo-3-piperidyl)-1,3-dioxoisoindolin-4-yl]amino]ethoxy]ethoxy]ethylamino]methyl]phenyl]pyrazol-4-yl]oxazole-4-carboxamide]",AUC(0-t),"Sprague Dawley, rat, plasma, po, 10 mg/kg, Rat (Sprague Dawley) po 10 mg/kg, Mean, read-out: AUClast",0.0152 µg·h/mL
same,Cmax,"Sprague Dawley, rat, plasma, po, 10 mg/kg, Rat (Sprague Dawley) po 10 mg/kg, Mean, read-out: Cmax",2.91 ng/mL
same,MRT inf,"Sprague Dawley, rat, plasma, po, 10 mg/kg, Rat (Sprague Dawley) po 10 mg/kg, Mean, read-out: MRTInf_obs",8.9 h
same,half-life,"Sprague Dawley, rat, plasma, po, 10 mg/kg, Rat (Sprague Dawley) po 10 mg/kg, Mean",4.88 h
same,MRT inf,"Sprague Dawley, rat, plasma, po, 10 mg/kg, Rat (Sprague Dawley) po 10 mg/kg, individual Rat 4-6, read-out: MRTInf_obs",7.27 h
same,half-life,"Sprague Dawley, rat, plasma, po, 10 mg/kg, Rat (Sprague Dawley) po 10 mg/kg, individual Rat 4-6",3.72 h
same,concentration at 0.25 h,[1],0.716 ng/mL
same,concentration at 0.25 h,[2],0.359 ng/mL
same,concentration at 0.25 h,[3],0.3 ng/mL
same,concentration at 0.25 h,[4],0.458 ng/mL
same,concentration at 0.5 h,[1],0.914 ng/mL
same,concentration at 0.5 h,[2],0.366 ng/mL
same,concentration at 0.5 h,[3],0.377 ng/mL
same,concentration at 0.5 h,[4],0.552 ng/mL
same,concentration at 1 h,[1],1.39 ng/mL
same,concentration at 1 h,[2],0.438 ng/mL
same,concentration at 1 h,[3],0.426 ng/mL
same,concentration at 1 h,[4],0.75 ng/mL
same,concentration at 2 h,[1],1.55 ng/mL
same,concentration at 2 h,[2],2.39 ng/mL
same,concentration at 2 h,[3],0.737 ng/mL
same,concentration at 2 h,[4],1.56 ng/mL
same,concentration at 4 h,[1],3.5 ng/mL
same,concentration at 4 h,[2],4.02 ng/mL
same,concentration at 4 h,[3],1.2 ng/mL
same,concentration at 4 h,[4],2.91 ng/mL
same,concentration at 8 h,[1],1.66 ng/mL
same,concentration at 8 h,[2],2.46 ng/mL
same,concentration at 8 h,[3],0.71 ng/mL
same,concentration at 8 h,[4],1.61 ng/mL
same,concentration at 4 h,"Sprague-Dawley, rat, brain, iv, 3 mg/kg, Rat (Sprague Dawley) iv 3 mg/kg (IVB), brain, Group 1, Group 2, detected value multiplied by 3, read-out: brain Actual Conc.",42.6 ng/g
same,concentration at 4 h,"Sprague-Dawley, rat, brain, iv, 3 mg/kg, Rat (Sprague Dawley) iv 3 mg/kg (IVB), brain, Mean, read-out: brain Actual Conc.",39.9 ng/g
same,MRT inf,"Sprague-Dawley, rat, plasma, iv, 3 mg/kg, Sprague Dawley rat, iv 3 mg/kg, Rat 1, read-out: MRTInf_obs Rat 1",3.26 h
same,MRT inf,"Sprague-Dawley, rat, plasma, iv, 3 mg/kg, Sprague Dawley rat, iv 3 mg/kg, Rat 2, read-out: MRTInf_obs Rat 2",3.15 h
same,MRT inf,"Sprague-Dawley, rat, plasma, iv, 3 mg/kg, Sprague Dawley rat, iv 3 mg/kg, Rat 3, read-out: MRTInf_obs Rat 3",2.92 h
same,MRT inf,"Sprague-Dawley, rat, plasma, iv, 3 mg/kg, Sprague Dawley rat, iv 3 mg/kg, mean of 3 rats, read-out: MRTInf_obs Mean",3.11 h
same,concentration at 5 min,[5],671 ng/mL
same,concentration at 5 min,[6],652 ng/mL
same,concentration at 5 min,[7],700 ng/mL
same,concentration at 5 min,[8],674 ng/mL
same,concentration at 0.25 h,[5],396 ng/mL
same,concentration at 0.25 h,[6],418 ng/mL
same,concentration at 0.25 h,[7],469 ng/mL
same,concentration at 0.25 h,[8],428 ng/mL
same,concentration at 0.5 h,[5],307 ng/mL
same,concentration at 0.5 h,[6],292 ng/mL
same,concentration at 0.5 h,[7],312 ng/mL
same,concentration at 0.5 h,[8],304 ng/mL
same,concentration at 1 h,[5],236 ng/mL
same,concentration at 1 h,[6],232 ng/mL
same,concentration at 1 h,[7],207 ng/mL
same,concentration at 1 h,[8],225 ng/mL
same,concentration at 2 h,[5],141 ng/mL
same,concentration at 2 h,[6],159 ng/mL
same,concentration at 2 h,[7],132 ng/mL
same,concentration at 2 h,[8],144 ng/mL
same,concentration at 4 h,[5],86 ng/mL
same,concentration at 4 h,[6],77.7 ng/mL
same,concentration at 4 h,[7],64.5 ng/mL
same,concentration at 4 h,[8],76.1 ng/mL
same,concentration at 8 h,[5],27.5 ng/mL
same,concentration at 8 h,[6],24.8 ng/mL
same,concentration at 8 h,[7],20.3 ng/mL
same,concentration at 8 h,[8],24.2 ng/mL
same,concentration at 24 h,[5],0.454 ng/mL
same,concentration at 24 h,[6],0.545 ng/mL
same,concentration at 24 h,[7],0.488 ng/mL
same,concentration at 24 h,[8],0.496 ng/mL
same,Tmax,"plasma, Rat (Sprague Dawley) po 10 mg/kg, individual Rat 4-6",4 h
